Source: ChEMBL document CHEMBL5465560, “Selectivity Literature for EUbOPEN Chemogenomic Library” (2024)

Columns and labels:
[1] = target: T1, Phosphorylase b kinase gamma catalytic chain, liver/testis isoform (Homo sapiens) (UniProt P15735); experiment: Selectivity interaction (Kinase panel (Z-LYTE Assay)) EUB0001632a PHKG2; settings: at 10 µM
T1 sequence (whole entry): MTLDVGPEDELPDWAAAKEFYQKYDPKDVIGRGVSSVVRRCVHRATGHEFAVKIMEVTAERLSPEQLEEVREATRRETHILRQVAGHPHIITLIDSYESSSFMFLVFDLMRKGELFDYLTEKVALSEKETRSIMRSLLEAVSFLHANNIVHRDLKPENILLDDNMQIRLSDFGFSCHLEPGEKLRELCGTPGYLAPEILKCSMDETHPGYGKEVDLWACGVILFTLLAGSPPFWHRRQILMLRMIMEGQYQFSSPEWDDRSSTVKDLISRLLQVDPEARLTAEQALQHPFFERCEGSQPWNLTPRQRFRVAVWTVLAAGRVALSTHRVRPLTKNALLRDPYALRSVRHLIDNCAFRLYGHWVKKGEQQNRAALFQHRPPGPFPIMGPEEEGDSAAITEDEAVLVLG

[2] = target: Serine/threonine-protein kinase PAK 6 (Homo sapiens) (UniProt Q9NQU5); experiment: Selectivity interaction (Kinase panel (Z-LYTE Assay)) EUB0001632a PAK6; settings: at 10 µM
[3] = target: T2, Serine/threonine-protein kinase greatwall (Homo sapiens) (UniProt Q96GX5); experiment: Selectivity interaction (LanthaScreen Eu Kinase Binding Assay) EUB0001632a MASTL; settings: at 10 µM
T2 sequence (whole entry): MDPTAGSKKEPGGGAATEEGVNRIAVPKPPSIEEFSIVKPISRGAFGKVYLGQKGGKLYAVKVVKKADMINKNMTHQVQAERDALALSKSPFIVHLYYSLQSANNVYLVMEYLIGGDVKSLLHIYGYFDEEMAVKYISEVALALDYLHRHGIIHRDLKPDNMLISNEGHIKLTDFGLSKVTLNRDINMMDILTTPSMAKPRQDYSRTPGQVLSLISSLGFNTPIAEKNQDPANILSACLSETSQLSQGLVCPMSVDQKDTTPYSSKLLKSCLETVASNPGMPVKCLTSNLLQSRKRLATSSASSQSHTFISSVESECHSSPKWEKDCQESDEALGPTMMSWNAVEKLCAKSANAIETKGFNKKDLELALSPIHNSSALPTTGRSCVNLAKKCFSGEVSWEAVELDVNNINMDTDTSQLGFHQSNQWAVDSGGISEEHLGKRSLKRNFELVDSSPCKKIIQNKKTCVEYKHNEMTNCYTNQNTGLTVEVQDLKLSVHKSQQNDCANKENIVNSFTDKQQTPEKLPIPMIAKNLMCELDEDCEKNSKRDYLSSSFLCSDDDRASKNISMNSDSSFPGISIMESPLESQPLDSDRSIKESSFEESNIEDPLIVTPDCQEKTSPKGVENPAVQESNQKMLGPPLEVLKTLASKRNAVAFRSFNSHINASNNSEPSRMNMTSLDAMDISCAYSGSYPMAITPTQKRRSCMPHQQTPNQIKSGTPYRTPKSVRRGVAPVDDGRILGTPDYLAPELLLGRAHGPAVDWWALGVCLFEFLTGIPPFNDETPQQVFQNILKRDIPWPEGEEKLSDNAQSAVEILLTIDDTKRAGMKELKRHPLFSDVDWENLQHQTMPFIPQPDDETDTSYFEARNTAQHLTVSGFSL

[4] = target: Serine/threonine-protein kinase B-raf (Homo sapiens) (UniProt P15056); experiment: (§1) Selectivity interaction (KinomeScan (DiscoverX)) EUB0001049a BRAF; settings: at 1 µM
[5] = tested on: Serine/threonine-protein kinase B-raf (Homo sapiens), P15056 [V600E]; experiment: as §1; settings: at 1 µM
[6] = target: Serine/threonine-protein kinase PLK2 (Homo sapiens, UniProt Q9NYY3); experiment: Selectivity interaction (Kinase panel (Invitrogen)) EUB0000639a PLK2; settings: at 200 nM
[7] = target: T3, Mitogen-activated protein kinase kinase kinase 7 (Homo sapiens) (UniProt O43318); experiment: Selectivity interaction (Kinase panel (Invitrogen)) EUB0000639a MAP3K7; settings: at 200 nM
T3 sequence (whole entry): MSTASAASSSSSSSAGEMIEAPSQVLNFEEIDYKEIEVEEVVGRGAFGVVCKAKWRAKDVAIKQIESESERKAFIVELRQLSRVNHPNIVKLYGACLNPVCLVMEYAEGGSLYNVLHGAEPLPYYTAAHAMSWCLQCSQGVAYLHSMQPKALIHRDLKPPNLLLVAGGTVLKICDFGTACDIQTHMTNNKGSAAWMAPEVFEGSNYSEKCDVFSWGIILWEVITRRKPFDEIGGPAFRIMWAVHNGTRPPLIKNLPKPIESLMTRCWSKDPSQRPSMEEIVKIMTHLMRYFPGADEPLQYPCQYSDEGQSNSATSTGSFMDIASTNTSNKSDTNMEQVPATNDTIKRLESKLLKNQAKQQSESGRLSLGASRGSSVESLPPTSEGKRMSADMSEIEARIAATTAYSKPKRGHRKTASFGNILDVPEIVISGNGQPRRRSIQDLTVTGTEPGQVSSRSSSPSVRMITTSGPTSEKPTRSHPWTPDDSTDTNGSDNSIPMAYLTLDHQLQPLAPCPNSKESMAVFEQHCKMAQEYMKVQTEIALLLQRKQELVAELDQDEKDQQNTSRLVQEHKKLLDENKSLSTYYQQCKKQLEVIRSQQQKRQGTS

[8] = target: Maternal embryonic leucine zipper kinase (Homo sapiens) (UniProt Q14680); experiment: Selectivity interaction (Kinase panel (Invitrogen)) EUB0000639a MELK; settings: at 200 nM
[9] = target: T4, Atypical kinase COQ8B, mitochondrial (Homo sapiens) (UniProt Q96D53); settings: at 10 µM
T4 sequence (whole entry): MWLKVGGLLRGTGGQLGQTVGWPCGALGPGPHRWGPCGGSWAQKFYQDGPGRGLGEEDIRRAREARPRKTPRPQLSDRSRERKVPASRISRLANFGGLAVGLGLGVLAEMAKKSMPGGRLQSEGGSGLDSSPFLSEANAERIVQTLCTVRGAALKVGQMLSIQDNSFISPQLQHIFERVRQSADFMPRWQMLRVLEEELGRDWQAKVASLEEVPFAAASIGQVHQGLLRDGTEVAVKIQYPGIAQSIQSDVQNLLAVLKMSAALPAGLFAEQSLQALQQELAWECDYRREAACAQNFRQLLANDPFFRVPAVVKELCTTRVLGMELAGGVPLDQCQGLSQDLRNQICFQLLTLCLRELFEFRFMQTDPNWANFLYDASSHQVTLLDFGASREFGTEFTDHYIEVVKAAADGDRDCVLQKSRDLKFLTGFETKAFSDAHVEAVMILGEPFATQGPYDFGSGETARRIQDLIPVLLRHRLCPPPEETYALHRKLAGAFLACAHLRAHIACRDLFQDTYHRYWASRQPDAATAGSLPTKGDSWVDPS

[10] = target: Ribosomal protein S6 kinase alpha-2 (Homo sapiens) (UniProt Q15349); experiment: Selectivity interaction (Ambit KINOMEscan and KiNATiv profiling in Jurkat cells) EUB0000090b RPS6KA2; assay type: cell-based; settings: at 1 µM
Ribosomal protein S6 kinase alpha-2 (Homo sapiens), sequence (Q15349 whole entry): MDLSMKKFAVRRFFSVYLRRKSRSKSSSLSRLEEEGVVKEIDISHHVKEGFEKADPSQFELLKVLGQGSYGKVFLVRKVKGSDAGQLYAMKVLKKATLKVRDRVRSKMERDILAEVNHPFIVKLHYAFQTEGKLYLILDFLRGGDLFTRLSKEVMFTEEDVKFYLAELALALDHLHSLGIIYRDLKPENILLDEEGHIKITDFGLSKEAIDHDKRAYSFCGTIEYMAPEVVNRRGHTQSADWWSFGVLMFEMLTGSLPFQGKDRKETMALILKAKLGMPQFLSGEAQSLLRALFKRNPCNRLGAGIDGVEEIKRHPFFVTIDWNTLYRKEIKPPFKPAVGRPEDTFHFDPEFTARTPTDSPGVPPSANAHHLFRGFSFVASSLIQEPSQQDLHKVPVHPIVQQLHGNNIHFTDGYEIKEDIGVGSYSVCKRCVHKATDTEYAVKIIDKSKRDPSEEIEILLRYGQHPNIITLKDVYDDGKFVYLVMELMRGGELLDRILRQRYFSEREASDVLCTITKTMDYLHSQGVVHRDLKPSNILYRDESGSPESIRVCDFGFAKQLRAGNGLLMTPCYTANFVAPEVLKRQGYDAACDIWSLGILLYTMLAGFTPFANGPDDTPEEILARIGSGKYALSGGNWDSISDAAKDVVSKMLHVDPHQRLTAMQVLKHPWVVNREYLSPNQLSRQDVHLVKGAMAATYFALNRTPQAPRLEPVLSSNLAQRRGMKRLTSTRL

Maternal embryonic leucine zipper kinase (Homo sapiens), sequence (Q14680 whole entry, looked up): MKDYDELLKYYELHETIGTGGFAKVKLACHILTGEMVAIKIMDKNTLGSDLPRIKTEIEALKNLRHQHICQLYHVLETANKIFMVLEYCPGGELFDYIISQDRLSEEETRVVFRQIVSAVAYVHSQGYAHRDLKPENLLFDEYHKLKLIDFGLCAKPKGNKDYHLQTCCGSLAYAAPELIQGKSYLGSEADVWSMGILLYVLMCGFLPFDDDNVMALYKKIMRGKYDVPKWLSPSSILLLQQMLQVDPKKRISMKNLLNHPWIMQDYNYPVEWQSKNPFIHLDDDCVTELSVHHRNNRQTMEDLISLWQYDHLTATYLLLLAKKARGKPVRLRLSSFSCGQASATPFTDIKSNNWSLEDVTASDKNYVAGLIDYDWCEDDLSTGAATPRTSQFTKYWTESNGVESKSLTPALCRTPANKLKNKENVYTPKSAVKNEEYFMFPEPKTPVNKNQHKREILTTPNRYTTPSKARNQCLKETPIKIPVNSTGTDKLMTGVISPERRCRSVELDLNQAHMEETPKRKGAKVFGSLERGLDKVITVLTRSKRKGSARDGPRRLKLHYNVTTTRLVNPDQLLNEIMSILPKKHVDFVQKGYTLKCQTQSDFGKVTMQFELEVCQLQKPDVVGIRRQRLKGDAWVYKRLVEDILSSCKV
Serine/threonine-protein kinase B-raf (Homo sapiens), P15056 [V600E], sequence (P15056 whole entry V600E): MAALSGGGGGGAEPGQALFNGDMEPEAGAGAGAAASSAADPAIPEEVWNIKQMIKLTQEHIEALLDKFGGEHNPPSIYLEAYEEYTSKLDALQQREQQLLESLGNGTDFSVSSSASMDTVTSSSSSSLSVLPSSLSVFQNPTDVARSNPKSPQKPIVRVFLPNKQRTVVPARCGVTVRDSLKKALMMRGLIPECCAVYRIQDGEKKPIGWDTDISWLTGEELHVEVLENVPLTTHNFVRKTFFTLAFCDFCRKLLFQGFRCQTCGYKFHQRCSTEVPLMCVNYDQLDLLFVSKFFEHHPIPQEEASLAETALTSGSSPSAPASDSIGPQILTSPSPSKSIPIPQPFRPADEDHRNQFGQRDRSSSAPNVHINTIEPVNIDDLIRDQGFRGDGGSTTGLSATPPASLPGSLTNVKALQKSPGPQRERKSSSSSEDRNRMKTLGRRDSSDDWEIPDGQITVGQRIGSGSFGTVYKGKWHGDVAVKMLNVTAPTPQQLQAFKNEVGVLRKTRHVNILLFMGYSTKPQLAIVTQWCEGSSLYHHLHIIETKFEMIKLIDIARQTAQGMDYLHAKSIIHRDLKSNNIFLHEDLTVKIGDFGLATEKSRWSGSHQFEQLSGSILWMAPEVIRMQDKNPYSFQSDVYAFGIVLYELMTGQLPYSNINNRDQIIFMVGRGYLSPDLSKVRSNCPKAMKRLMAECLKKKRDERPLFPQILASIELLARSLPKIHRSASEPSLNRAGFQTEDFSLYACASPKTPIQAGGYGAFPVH
Serine/threonine-protein kinase PAK 6 (Homo sapiens), sequence (Q9NQU5 whole entry, looked up): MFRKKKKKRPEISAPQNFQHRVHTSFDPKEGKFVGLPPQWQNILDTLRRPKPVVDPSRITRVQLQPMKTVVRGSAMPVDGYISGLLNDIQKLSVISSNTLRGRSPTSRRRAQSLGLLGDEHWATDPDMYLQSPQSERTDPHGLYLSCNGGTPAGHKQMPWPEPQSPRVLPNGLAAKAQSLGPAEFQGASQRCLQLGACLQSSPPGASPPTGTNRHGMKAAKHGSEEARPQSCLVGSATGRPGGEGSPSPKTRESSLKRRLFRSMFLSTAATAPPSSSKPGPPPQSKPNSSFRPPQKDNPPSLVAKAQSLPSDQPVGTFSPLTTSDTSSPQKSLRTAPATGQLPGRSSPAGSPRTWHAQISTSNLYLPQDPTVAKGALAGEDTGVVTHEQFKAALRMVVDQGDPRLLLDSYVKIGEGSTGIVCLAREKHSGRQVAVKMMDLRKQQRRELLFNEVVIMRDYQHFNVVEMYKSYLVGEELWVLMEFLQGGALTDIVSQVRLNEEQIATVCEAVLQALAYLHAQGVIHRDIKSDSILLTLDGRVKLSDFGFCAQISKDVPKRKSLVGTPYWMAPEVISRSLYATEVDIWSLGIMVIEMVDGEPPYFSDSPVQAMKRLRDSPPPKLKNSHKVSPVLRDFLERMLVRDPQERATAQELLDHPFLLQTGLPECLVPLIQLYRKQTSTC
Serine/threonine-protein kinase PLK2, sequence (Q9NYY3 whole entry, looked up): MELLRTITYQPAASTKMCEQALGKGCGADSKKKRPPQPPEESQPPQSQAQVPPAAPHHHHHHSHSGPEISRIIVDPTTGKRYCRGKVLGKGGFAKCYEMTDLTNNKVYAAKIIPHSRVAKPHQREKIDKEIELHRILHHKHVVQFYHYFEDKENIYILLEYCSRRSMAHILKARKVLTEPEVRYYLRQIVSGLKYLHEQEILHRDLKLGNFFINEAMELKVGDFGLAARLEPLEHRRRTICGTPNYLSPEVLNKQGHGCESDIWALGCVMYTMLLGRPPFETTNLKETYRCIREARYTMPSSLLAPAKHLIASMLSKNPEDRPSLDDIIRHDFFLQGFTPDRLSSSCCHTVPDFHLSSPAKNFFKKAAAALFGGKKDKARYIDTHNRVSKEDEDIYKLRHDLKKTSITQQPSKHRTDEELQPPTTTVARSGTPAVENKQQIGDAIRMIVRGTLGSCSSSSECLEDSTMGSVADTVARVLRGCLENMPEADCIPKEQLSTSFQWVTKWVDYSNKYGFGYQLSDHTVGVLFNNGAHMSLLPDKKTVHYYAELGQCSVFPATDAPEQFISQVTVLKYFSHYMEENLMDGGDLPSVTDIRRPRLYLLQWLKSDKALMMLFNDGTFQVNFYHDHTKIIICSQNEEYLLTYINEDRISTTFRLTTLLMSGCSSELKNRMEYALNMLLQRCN
Serine/threonine-protein kinase B-raf (Homo sapiens), sequence (P15056 whole entry): as the sequence (P15056 whole entry V600E) above, with E600V counted along it

SMILES: Cn1cc(-n2cnc3c(NCc4nc5cc(Cl)c(Cl)cc5[nH]4)nc(N4CCOCC4)nc32)cn1
- % of control [1]: 4.25%
- % of control [2]: -4.06%
- % of inhibition [3]: -42%

SMILES: COc1cc(Nc2nc(C)cc(-c3cnn4nc(OC)ccc34)n2)cc(C(F)(F)F)c1
- % of control [4]: 100%
- % of control [5]: 100%

SMILES: CC[C@@H]1[C@H](F)C(=O)N[C@@H]1COc1nccc2cc(C(N)=O)c(OC)cc12 [ZIMLOVISERTIB]
- % of inhibition [6]: 5.58%
- % of inhibition [7]: 8.31%
- % of inhibition [8]: 25.9%

SMILES: CCN(CC)CCCCNc1ncc2cc(-c3cc(OC)cc(OC)c3)c(NC(=O)NC(C)(C)C)nc2n1
- % of control [9]: 100%

SMILES: CN(C)C/C=C/C(=O)Nc1ccc(C(=O)N2CCCC(Nc3ncc(Cl)c(-c4c[nH]c5ccccc45)n3)C2)cc1 (stereo not given)
- % of control [10]: 55%
